What was measured:
Experiment in all cases: normalised viability (% of control), CellTiter-Blue; higher = more viable cells (about 100 = DMSO control)
Conditions in all cases: incubation time: 72 h
[1] = system: BT-474
Experimental: (§1)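 DSRT, CellTiter-Blue viability, 72 h incubation. Signal is normalised to DMSO and benzethonium chloride controls. Value is the normalised response at dose 3.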

[2] = system: BT-549
Experimental: as §1

[3] = system: CAL-120
Experimental: as §1

[4] = system: CAL-148
Experimental: as §1

[5] = system: CAL-51
Experimental: as §1

[6] = system: CAL-85-1
Experimental: as §1

[7] = system: DU-4475
Experimental: as §1

[8] = system: HCC1143
Experimental: as §1

[9] = system: HCC1599
Experimental: as §1

[10] = system: HCC1937
Experimental: as §1

[11] = system: HDQ-P1
Experimental: as §1

[12] = system: Hs578T
Experimental: as §1

[13] = system: MDA-MB-231
Experimental: as §1

[14] = system: MDA-MB-436
Experimental: as §1

[15] = system: MDA-MB-453
Experimental: as §1

[16] = system: MFM-223
Experimental: as §1

[17] = system: SK-BR-3
Experimental: as §1

CS(=O)(=O)c1ccc(C(=O)Nc2ccc(Cl)c(-c3ccccn3)c2)c(Cl)c1 [Vismodegib]
normalised viability ([1]; 100 nM): 101%
normalised viability ([2]; 100 nM): 112%
normalised viability ([3]; 100 nM): 87.7%
normalised viability ([4]; 10 nM): 96.8%
normalised viability ([5]; 10 nM): 103%
normalised viability ([6]; 10 nM): 114%
normalised viability ([7]; 10 nM): 108%
normalised viability ([8]; 100 nM): 87.7%
normalised viability ([9]; 100 nM): 86.2%
normalised viability ([10]; 100 nM): 107%
normalised viability ([11]; 10 nM): 105%
normalised viability ([12]; 100 nM): 80.1%
normalised viability ([13]; 100 nM): 94%
normalised viability ([14]; 100 nM): 85.6%
normalised viability ([15]; 10 nM): 108%
normalised viability ([16]; 100 nM): 104%
normalised viability ([17]; 100 nM): 66.7%

Cc1c2oc3c(C)ccc(C(=O)N[C@@H]4C(=O)N[C@H](C(C)C)C(=O)N5CCC[C@H]5C(=O)N(C)CC(=O)N(C)[C@@H](C(C)C)C(=O)O[C@@H]4C)c3nc-2c(C(=O)N[C@@H]2C(=O)N[C@H](C(C)C)C(=O)N3CCC[C@H]3C(=O)N(C)CC(=O)N(C)[C@@H](C(C)C)C(=O)O[C@@H]2C)c(N)c1=O [Dactinomycin]
normalised viability ([1]; 10 nM): 73.5%
normalised viability ([2]; 10 nM): 17.8%
normalised viability ([3]; 10 nM): 31.4%
normalised viability ([4]; 1 nM): 46.5%
normalised viability ([5]; 1 nM): 77%
normalised viability ([6]; 1 nM): 50.3%
normalised viability ([7]; 1 nM): 32.1%
normalised viability ([8]; 10 nM): 46.5%
normalised viability ([9]; 10 nM): 49.3%
normalised viability ([10]; 10 nM): 41.3%
normalised viability ([11]; 1 nM): 59.2%
normalised viability ([12]; 10 nM): 23.3%
normalised viability ([13]; 10 nM): 27.3%
normalised viability ([14]; 10 nM): 46.4%
normalised viability ([15]; 1 nM): 49.7%
normalised viability ([16]; 10 nM): 67.5%
normalised viability ([17]; 10 nM): 24.6%

CN1CCC(COc2cnc(-c3cccc(Cn4nc(-c5cccc(C#N)c5)ccc4=O)c3)nc2)CC1
normalised viability ([1]; 100 nM): 102%
normalised viability ([2]; 100 nM): 81.5%
normalised viability ([3]; 100 nM): 108%
normalised viability ([4]; 10 nM): 79.1%
normalised viability ([5]; 10 nM): 92.9%
normalised viability ([6]; 10 nM): 94.4%
normalised viability ([7]; 10 nM): 98.3%
normalised viability ([8]; 100 nM): 109%
normalised viability ([9]; 100 nM): 116%
normalised viability ([10]; 100 nM): 94%
normalised viability ([11]; 10 nM): 86.3%
normalised viability ([12]; 100 nM): 76.3%
normalised viability ([13]; 100 nM): 83.4%
normalised viability ([14]; 100 nM): 92.3%
normalised viability ([15]; 10 nM): 89.3%
normalised viability ([16]; 100 nM): 96.9%
normalised viability ([17]; 100 nM): 68.9%

CO[C@H]1C[C@@H]2CC[C@@H](C)[C@@](O)(O2)C(=O)C(=O)N2CCCC[C@H]2C(=O)O[C@H]([C@H](C)C[C@@H]2CC[C@@H](OC(=O)C(C)(CO)CO)[C@H](OC)C2)CC(=O)[C@H](C)/C=C(\C)[C@@H](O)[C@@H](OC)C(=O)[C@H](C)C[C@H](C)/C=C/C=C/C=C/1C [Temsirolimus]
normalised viability ([1]; 10 nM): 69.3%
normalised viability ([2]; 10 nM): 68.2%
normalised viability ([3]; 10 nM): 55.8%
normalised viability ([4]; 1 nM): 54.5%
normalised viability ([5]; 1 nM): 73.9%
normalised viability ([6]; 1 nM): 65.7%
normalised viability ([7]; 1 nM): 89.8%
normalised viability ([8]; 10 nM): 77.1%
normalised viability ([9]; 10 nM): 90.8%
normalised viability ([10]; 10 nM): 56.5%
normalised viability ([11]; 1 nM): 90.9%
normalised viability ([12]; 10 nM): 50.2%
normalised viability ([13]; 10 nM): 68%
normalised viability ([14]; 10 nM): 85.8%
normalised viability ([15]; 1 nM): 32%
normalised viability ([16]; 10 nM): 49.8%
normalised viability ([17]; 10 nM): 50.5%

CN(C)C/C=C/C(=O)Nc1cc2c(Nc3ccc(F)c(Cl)c3)ncnc2cc1O[C@H]1CCOC1 [Afatinib]
normalised viability ([1]; 100 nM): 34.8%
normalised viability ([2]; 100 nM): 104%
normalised viability ([3]; 100 nM): 71.8%
normalised viability ([4]; 10 nM): 79.9%
normalised viability ([5]; 10 nM): 107%
normalised viability ([6]; 10 nM): 84.7%
normalised viability ([7]; 10 nM): 95.1%
normalised viability ([8]; 100 nM): 71%
normalised viability ([9]; 100 nM): 84.6%
normalised viability ([10]; 100 nM): 93.4%
normalised viability ([11]; 10 nM): 94.3%
normalised viability ([12]; 100 nM): 84.2%
normalised viability ([13]; 100 nM): 90.3%
normalised viability ([14]; 100 nM): 84.7%
normalised viability ([15]; 10 nM): 81.4%
normalised viability ([16]; 100 nM): 84.8%
normalised viability ([17]; 100 nM): 15.2%

COc1cc(Nc2ncc3c(n2)-c2ccc(Cl)cc2C(c2c(F)cccc2OC)=NC3)ccc1C(=O)O [MLN8237]
normalised viability ([1]; 100 nM): 72.6%
normalised viability ([2]; 100 nM): 62.2%
normalised viability ([3]; 100 nM): 68.2%
normalised viability ([4]; 10 nM): 94.7%
normalised viability ([5]; 10 nM): 98.2%
normalised viability ([6]; 10 nM): 95%
normalised viability ([7]; 10 nM): 102%
normalised viability ([8]; 100 nM): 71.2%
normalised viability ([9]; 100 nM): 97.7%
normalised viability ([10]; 100 nM): 65.7%
normalised viability ([11]; 10 nM): 111%
normalised viability ([12]; 100 nM): 51.3%
normalised viability ([13]; 100 nM): 75.5%
normalised viability ([14]; 100 nM): 91.5%
normalised viability ([15]; 10 nM): 84.3%
normalised viability ([16]; 100 nM): 77.7%
normalised viability ([17]; 100 nM): 53%

Clc1ccc(C(c2ccccc2Cl)C(Cl)Cl)cc1 (stereo unspecified) [Mitotane]
normalised viability ([1]; 100 nM): 127%
normalised viability ([2]; 100 nM): 98.5%
normalised viability ([3]; 100 nM): 86.3%
normalised viability ([4]; 10 nM): 93.1%
normalised viability ([5]; 10 nM): 112%
normalised viability ([6]; 10 nM): 99.9%
normalised viability ([7]; 10 nM): 98.6%
normalised viability ([8]; 100 nM): 89.6%
normalised viability ([9]; 100 nM): 107%
normalised viability ([10]; 100 nM): 95.6%
normalised viability ([11]; 10 nM): 99.1%
normalised viability ([12]; 100 nM): 99.8%
normalised viability ([13]; 100 nM): 91.7%
normalised viability ([14]; 100 nM): 105%
normalised viability ([15]; 10 nM): 102%
normalised viability ([16]; 100 nM): 93.9%
normalised viability ([17]; 100 nM): 112%

C=CCNC1=C2C[C@@H](C)C[C@H](OC)[C@H](O)[C@@H](C)/C=C(\C)[C@H](OC(N)=O)[C@@H](OC)/C=C\C=C(/C)C(=O)NC(=CC1=O)C2=O [Tanespimycin]
normalised viability ([1]; 100 nM): 35.3%
normalised viability ([2]; 100 nM): 32.9%
normalised viability ([3]; 100 nM): 72.7%
normalised viability ([4]; 10 nM): 94%
normalised viability ([5]; 10 nM): 118%
normalised viability ([6]; 10 nM): 98.4%
normalised viability ([7]; 10 nM): 106%
normalised viability ([8]; 100 nM): 33.4%
normalised viability ([9]; 100 nM): 61.2%
normalised viability ([10]; 100 nM): 37.3%
normalised viability ([11]; 10 nM): 93.5%
normalised viability ([12]; 100 nM): 50.2%
normalised viability ([13]; 100 nM): 114%
normalised viability ([14]; 100 nM): 26.3%
normalised viability ([15]; 10 nM): 81%
normalised viability ([16]; 100 nM): 29.2%
normalised viability ([17]; 100 nM): 16.5%

— the supplement of paper PMC4862054
